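Interpolation was linear, between the two tested concentrations surrounding the appropriate level; five concentrations were tested over 48 hours in 96-well plates. GI50 = concentration required for 50% inhibition of growth.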 Calls of active or inactive are those of the source. Rule as the data show it: active = GI50 up to about 1.1 µM and inactive = higher.
What was measured:
Experiment in all cases: NCI tumour cell line growth inhibition, 48 h
786-0 = system: 786-0
A498 = system: A498
A549 = system: A549
ACHN = system: ACHN
CCRF-CEM = system: CCRF-CEM
COLO 205 = system: COLO 205
DLD-1 = system: DLD-1
DMS-114 = system: DMS-114
DMS-273 = system: DMS-273
EKVX = system: EKVX
HCC 2998 = system: HCC 2998
HCT-116 = system: HCT-116
HCT-15 = system: HCT-15
HOP-18 = system: HOP-18
HOP-62 = system: HOP-62
HOP-92 = system: HOP-92
HT-29 = system: HT-29
IGROV-1 = system: IGROV-1
K562 = system: K562
KM-20L2 = system: KM-20L2
KM12 = system: KM12
LOX IMVI = system: LOX IMVI
LXFL 529 = system: LXFL 529
M14 = system: M14
M19-MEL = system: M19-MEL
MOLT-4 = system: MOLT-4
Malme-3M = system: Malme-3M
NCI-H226 = system: NCI-H226
NCI-H23 = system: NCI-H23
NCI-H460 = system: NCI-H460
NCI-H522 = system: NCI-H522
OVCAR-3 = system: OVCAR-3
OVCAR-4 = system: OVCAR-4
OVCAR-5 = system: OVCAR-5
OVCAR-8 = system: OVCAR-8
RXF 393 = system: RXF 393
SF-268 = system: SF-268
SF-295 = system: SF-295
SF-539 = system: SF-539
SK-MEL-28 = system: SK-MEL-28
SK-MEL-2 = system: SK-MEL-2
SK-MEL-5 = system: SK-MEL-5
SK-OV-3 = system: SK-OV-3
SN12C = system: SN12C
SNB-19 = system: SNB-19
SNB-75 = system: SNB-75
SNB-78 = system: SNB-78
SW-620 = system: SW-620
TK-10 = system: TK-10
U-251 = system: U-251
UACC-257 = system: UACC-257
UACC-62 = system: UACC-62
UO-31 = system: UO-31
XF498 = system: XF498

Structure (SMILES): N#CC(C(=N/NC(N)=S)/C(=N/NC(N)=S)C(C#N)c1ccc(Cl)cc1)c1ccc(Cl)cc1 (centres undefined)
- GI50 (786-0): > 100 µM (inactive)
- GI50 (A498): > 100 µM (inactive)
- GI50 (A549): > 100 µM (inactive)
- GI50 (ACHN): > 100 µM (inactive)
- GI50 (CCRF-CEM): 22.6 µM (inactive)
- GI50 (COLO 205): > 100 µM (inactive)
- GI50 (DLD-1): 34.1 µM (inactive)
- GI50 (DMS-114): > 100 µM (inactive)
- GI50 (DMS-273): > 100 µM (inactive)
- GI50 (EKVX): > 100 µM (inactive)
- GI50 (HCC 2998): > 100 µM (inactive)
- GI50 (HCT-116): > 100 µM (inactive)
- GI50 (HCT-15): 83.8 µM
- GI50 (HOP-18): 94.2 µM (inactive)
- GI50 (HOP-62): > 100 µM (inactive)
- GI50 (HOP-92): > 100 µM (inactive)
- GI50 (HT-29): > 100 µM (inactive)
- GI50 (IGROV-1): > 100 µM (inactive)
- GI50 (K562): 34.9 µM (inactive)
- GI50 (KM-20L2): > 100 µM (inactive)
- GI50 (KM12): > 100 µM (inactive)
- GI50 (LOX IMVI): > 100 µM (inactive)
- GI50 (LXFL 529): 49.7 µM (inactive)
- GI50 (M14): > 100 µM (inactive)
- GI50 (M19-MEL): > 100 µM (inactive)
- GI50 (MOLT-4): 22.7 µM (inactive)
- GI50 (Malme-3M): > 100 µM (inactive)
- GI50 (NCI-H226): > 100 µM (inactive)
- GI50 (NCI-H23): 65.5 µM (inactive)
- GI50 (NCI-H460): > 100 µM (inactive)
- GI50 (NCI-H522): > 100 µM (inactive)
- GI50 (OVCAR-3): 80 µM (inactive)
- GI50 (OVCAR-4): > 100 µM (inactive)
- GI50 (OVCAR-5): > 100 µM (inactive)
- GI50 (OVCAR-8): 53.8 µM (inactive)
- GI50 (RXF 393): 47.3 µM (inactive)
- GI50 (SF-268): > 100 µM (inactive)
- GI50 (SF-295): > 100 µM (inactive)
- GI50 (SF-539): > 100 µM (inactive)
- GI50 (SK-MEL-28): 81.3 µM (inactive)
- GI50 (SK-MEL-2): > 100 µM (inactive)
- GI50 (SK-MEL-5): 78.2 µM (inactive)
- GI50 (SK-OV-3): > 100 µM (inactive)
- GI50 (SN12C): > 100 µM (inactive)
- GI50 (SNB-19): > 100 µM (inactive)
- GI50 (SNB-75): 31.3 µM (inactive)
- GI50 (SNB-78): 35.6 µM (inactive)
- GI50 (SW-620): 41.7 µM (inactive)
- GI50 (TK-10): > 100 µM (inactive)
- GI50 (U-251): > 100 µM (inactive)
- GI50 (UACC-257): > 100 µM (inactive)
- GI50 (UACC-62): 59.6 µM (inactive)
- GI50 (UO-31): > 100 µM (inactive)
- GI50 (XF498): > 100 µM (inactive)
